According to ChEMBL document CHEMBL1146444, “RKS-1778, a new mammalian cell-cycle inhibitor and a key intermediate of the [11]cytochalasin group” (J Nat Prod, 1997):
Active and inactive are the calls of the source. The calls are words filed in the database; no cut-off is given here.

Columns and labels:
[1] = Cell cycle arrest in mouse temperature-sensitive FT210 cells by accumulation at M phase at 2.0 uM by flow cytometry; type: functional, cell-based
[2] = Cell cycle arrest in mouse temperature-sensitive FT210 cells by accumulation at M phase at 2.1 uM by flow cytometry; type: functional, cell-based

| Structure (SMILES) | Activity [1] | Activity [2] |
| --- | --- | --- |
| CC(=O)O[C@@H]1/C=C/[C@](C)(O)C[C@@H](C)C/C=C/[C@H]2[C@@H]3O[C@]3(C)[C@@H](C)[C@H]3[C@H](Cc4ccccc4)NC(=O)[C@@]312 | Active | Active |
| CC(=O)O[C@@H]1/C=C/[C@](C)(O)C[C@@H](C)C/C=C/[C@H]2C=C(C)[C@@H](C)[C@H]3[C@H](Cc4ccccc4)NC(=O)[C@]321 | Active | Active |
